We go through 31 compounds from patent publication EP2017264A1, “Substituted phenyl propargyl compounds, method for their manufacture and their use as herbicides and plant growth regulators” (BAYER CROPSCIENCE AG, priority 2007, dated 2009).

Data set [1] has as its system Echinochloa crus-galli, Setaria viridis, Stellaria media und Veronica persica. The experiment in a line: Pre-emergence weed control, greenhouse pot test. In kind it is in vivo. The note with it: Aufwandmenge von 1,28 kg oder weniger Aktivsubstanz pro Hektar, visual rating after 3 bis 4 Wochen vs untreated controls. The source says: Samen bzw. Rhizomstücke von mono- und dikotylen Unkrautpflanzen wurden in Plastiktöpfen in sandiger Lehmerde ausgelegt und mit Erde abgedeckt. Die in Form von benetzbaren Pulvern oder Emulsionskonzentraten formulierten erfindungsgemäßen Verbindungen wurden dann als wäßrige Suspension bzw. Emulsion mit einer Wasseraufwandmenge von umgerechnet 600 bis 800 l/ha in unterschiedlichen Dosierungen auf die Oberfläche der Abdeckerde appliziert.
Nach der Behandlung wurden die Töpfe im Gewächshaus aufgestellt und unter guten Wachstumsbedingungen für die Unkräuter gehalten. Die optische Bonitur der Pflanzen- bzw. Auflaufschäden erfolgte nach dem Auflaufen der Versuchspflanzen nach einer Versuchszeit von 3 bis 4 Wochen im Vergleich zu unbehandelten Kontrollen. Wie die Testergebnisse zeigten, wiesen die erfindungsgemäßen Verbindungen eine gute herbizide Vorauflaufwirksamkeit gegen ein breites Spektrum von Ungräsern und Unkräutern auf.

The subject of data set [2] is Echinochloa crus-galli, Setaria viridis, Abuthilon theophrasti, Amaranthus retroflexus und Veronica persica. Put plainly: Post-emergence weed control, greenhouse pot test. In kind it is in vivo. Conditions: three-leaf stage, Aufwandmenge von 1,28 kg und weniger Aktivsubstanz pro Hektar, visual rating after ca. 3 bis 4 Wochen vs untreated controls. The source says:
Samen bzw. Rhizomstücke von mono- und dikotylen Unkräutern wurden in Plastiktöpfen in sandigem Lehmboden ausgelegt, mit Erde abgedeckt und im Gewächshaus unter guten Wachstumsbedingungen angezogen. Drei Wochen nach der Aussaat wurden die Versuchspflanzen im Dreiblattstadium behandelt. Die als Spritzpulver bzw. als Emulsionskonzentrate formulierten erfindungsgemäßen Verbindungen wurden in verschiedenen Dosierungen mit einer Wasseraufwandmenge von umgerechnet 600 bis 800 I/ha auf die grünen Pflanzenteile gesprüht. Nach ca. 3 bis 4 Wochen Standzeit der Versuchspflanzen im Gewächshaus unter optimalen Wachstumsbedingungen wurde die Wirkung der Präparate optisch im Vergleich zu unbehandelten Kontrollen bonitiert. Die erfindungsgemäßen Mittel wiesen auch im Nachauflauf eine gute herbizide Wirksamkeit gegen ein breites Spektrum wirtschaftlich wichtiger Ungräser und Unkräuter auf. Beispielsweise zeigten die Beispiele Nr.

Data set [3] is described as follows: physchem.
Description: "LogP" = Verteilungskoeffizient in einem Zweiphasengemisch aus n-Octanol und Wasser.
Die log P-Daten wurden in Übereinstimmung mit der EEC Direktive 79/831, Anlage V.A8 (Annex V.A8) mittels HPLC (High Performance Liquid Chromatography) auf einer Umkehrphase-Säule (reversed-phase column) (C18) mit folgenden Methoden bestimmt: Temperatur: 40°C; Mobile Phase: 0,1 % bzw. 0,06 %ige wässrige Ameisensäure oder 0,1 % wässriger Phosphorsäure und Acetonitril; linearer Gradient von 10% Acetonitril bis 90% bzw. 95 % Acetonitril. Die Kalibrierung wurde ausgeführt mit Hilfe unverzweigter Alkan-2-one (bestehend aus 3 bis 13 bzw.16 Kohlenstoff-Atomen) mit bekannten IogP-Werten (Bestimmung der IogP-Werte über die Retentionszeiten mittels linearer Interpolation zwischen zwei nachfolgenden Alkanonen).

Regarding `COc1ccccc1C=NOC(C)C#Cc1cccc(SC)c1` (stereo not drawn) [Beispiel 1.301], the “herbizide Wirkung gegen Schadpflanzen im Vorauflaufverfahren” value in data set [1] is given as “sehr gute herbizide Wirkung”. For the same compound, in data set [2], the “herbizide Wirkung gegen Schadpflanzen im Nachauflaufverfahren” value is reported as “sehr gute herbizide Wirkung”. This compound had a chromatographic logP in data set [3] of 4.85.
For the compound `Cc1cccc(C=NOC(C)C#Cc2cccc([S+](C)[O-])c2)n1` (stereo not drawn) [Beispiel 3.086], the “herbizide Wirkung gegen Schadpflanzen im Vorauflaufverfahren” value in data set [1] is listed as “sehr gute herbizide Wirkung”. Besides, the “herbizide Wirkung gegen Schadpflanzen im Nachauflaufverfahren” value in data set [2] is “sehr gute herbizide Wirkung”. The chromatographic logP in data set [3] worked out at 1.57.
On to `COc1ncc(C=NOCC#Cc2cccc(SC)c2)cc1F` [Beispiel 5.040], for which, in data set [1], the “herbizide Wirkung gegen Schadpflanzen im Vorauflaufverfahren” value is recorded as “sehr gute herbizide Wirkung”. Besides, the “herbizide Wirkung gegen Schadpflanzen im Nachauflaufverfahren” value in data set [2] is “sehr gute herbizide Wirkung”. This compound also displayed a chromatographic logP in data set [3] of 4.23.
Regarding `COc1ncc(C=NOCC#Cc2cccc([S+](C)[O-])c2)cc1F` (stereo not drawn) [Beispiel 5.041], the “herbizide Wirkung gegen Schadpflanzen im Vorauflaufverfahren” value in data set [1] is reported as “sehr gute herbizide Wirkung”. Besides, the “herbizide Wirkung gegen Schadpflanzen im Nachauflaufverfahren” value in data set [2] was “sehr gute herbizide Wirkung”. The compound further showed a chromatographic logP in data set [3] of 2.28.
As for `COc1ccc(C=NOCC#Cc2cccc(SC)c2)cn1` [Beispiel 5.120], the “herbizide Wirkung gegen Schadpflanzen im Vorauflaufverfahren” value in data set [1] was “sehr gute herbizide Wirkung”. The “herbizide Wirkung gegen Schadpflanzen im Nachauflaufverfahren” value in data set [2] is given as “sehr gute herbizide Wirkung”. This compound displayed a chromatographic logP in data set [3] of 4.
In data set [3], `COc1ccc(C=NOCC#Cc2cc(SC)c(F)c(SC)c2)cn1` [Beispiel 5.148] yielded a chromatographic logP of 4.57.
Same read-out and setting: under `COc1ncccc1C=NOCC#Cc1ccc(C)c([S+](C)[O-])c1` (stereo not drawn) [Beispiel 5.168] stands 2.42; under `Cc1ccc(C#CCON=Cc2cccnc2)cc1[S+](C)[O-]` (stereo not drawn) [Beispiel 5.170], 1.37.
With `CCOc1ncccc1C=NOCC#Cc1ccc(C)c([S+](C)[O-])c1` (stereo not drawn) [Beispiel 5.171], the chromatographic logP in data set [3] is 2.83.
With `CSc1cccc(C#CCON=Cc2ccc(OC(C)C)nc2)c1` [Beispiel 5.177], in data set [1], the “herbizide Wirkung gegen Schadpflanzen im Vorauflaufverfahren” value was “sehr gute herbizide Wirkung”. Besides, the “herbizide Wirkung gegen Schadpflanzen im Nachauflaufverfahren” value in data set [2] is given as “sehr gute herbizide Wirkung”. Besides, the chromatographic logP in data set [3] amounted to 4.87.
`CC(C)Oc1ccc(C=NOCC#Cc2cccc(CC#N)c2)cn1` [Beispiel 5.178] yielded a chromatographic logP in data set [3] of 3.69.
Turning to `CC(C)Oc1ccc(C=NOCC#Cc2cccc([S+](C)[O-])c2)cn1` (stereo not drawn) [Beispiel 5.181], in data set [1], the “herbizide Wirkung gegen Schadpflanzen im Vorauflaufverfahren” value is given as “sehr gute herbizide Wirkung”. The “herbizide Wirkung gegen Schadpflanzen im Nachauflaufverfahren” value in data set [2] is given as “sehr gute herbizide Wirkung”. Further, in data set [3], the chromatographic logP stood at 2.77.
With `COc1ccc(C=NOCC#Cc2cccc(SC)c2)c(OC)n1` [Beispiel 5.183], the chromatographic logP in data set [3] was 4.93.
In data set [3], `COc1ccc(C=NOCC#Cc2cccc(CC#N)c2)c(OC)n1` [Beispiel 5.184] yielded a chromatographic logP of 3.79.
As for `COc1ccc(C=NOCC#Cc2cccc([S+](C)[O-])c2)c(OC)n1` (stereo not drawn) [Beispiel 5.185], the “herbizide Wirkung gegen Schadpflanzen im Nachauflaufverfahren” value in data set [2] is “sehr gute herbizide Wirkung”. For the same compound, the chromatographic logP in data set [3] came to 2.89.
As for `CSc1cccc(C#CCON=Cc2ccc(SC)nc2)c1` [Beispiel 5.186], the chromatographic logP in data set [3] worked out at 4.22.
In data set [3], `CSc1ccc(C=NOCC#Cc2cccc(CC#N)c2)cn1` [Beispiel 5.187] registered a chromatographic logP of 3.18.
For `CSc1ccc(C=NOCC#Cc2cccc([S+](C)[O-])c2)cn1` (stereo not drawn) [Beispiel 5.188], the “herbizide Wirkung gegen Schadpflanzen im Nachauflaufverfahren” value in data set [2] was “sehr gute herbizide Wirkung”. The same compound displayed a chromatographic logP in data set [3] of 2.23.
`CCOc1ccc(C=NOCC#Cc2cccc([S+](C)[O-])c2)cn1` (stereo not drawn) [Beispiel 5.189]: the “herbizide Wirkung gegen Schadpflanzen im Vorauflaufverfahren” value in data set [1] is listed as “sehr gute herbizide Wirkung”. Moreover, the “herbizide Wirkung gegen Schadpflanzen im Nachauflaufverfahren” value in data set [2] is reported as “sehr gute herbizide Wirkung”. Further, the chromatographic logP in data set [3] came to 2.42.
Take `CCOc1ccc(C=NOCC#Cc2cccc(SC)c2)cn1` [Beispiel 5.190]: the “herbizide Wirkung gegen Schadpflanzen im Vorauflaufverfahren” value in data set [1] was “sehr gute herbizide Wirkung”. In addition, the “herbizide Wirkung gegen Schadpflanzen im Nachauflaufverfahren” value in data set [2] is listed as “sehr gute herbizide Wirkung”. The chromatographic logP in data set [3] is 4.42.
In data set [3], `CSc1cccc(C#CCON=Cc2ccc(OCC(F)(F)F)nc2OCC(F)(F)F)c1` [Beispiel 5.191] came in with a chromatographic logP of 5.08.
The compound `N#CCc1cccc(C#CCON=Cc2ccc(OCC(F)(F)F)nc2OCC(F)(F)F)c1` [Beispiel 5.192] displayed a chromatographic logP in data set [3] of 4.03.
For `C[S+]([O-])c1cccc(C#CCON=Cc2ccc(OCC(F)(F)F)nc2OCC(F)(F)F)c1` (stereo not drawn) [Beispiel 5.193], the chromatographic logP in data set [3] stood at 3.4.
The same measure, in the same setting: the value for `CSc1cccc(C#CCON=Cc2ccc(C3CCCC3)nc2)c1` [Beispiel 5.194] was 5.44; that for `N#CCc1cccc(C#CCON=Cc2ccc(C3CCCC3)nc2)c1` [Beispiel 5.195] was 4.27.
For the compound `C[S+]([O-])c1cccc(C#CCON=Cc2ccc(C3CCCC3)nc2)c1` (stereo not drawn) [Beispiel 5.196], the chromatographic logP in data set [3] worked out at 3.43.
On to `COc1ncc(C=NOCC#Cc2cccc(SC)c2)cc1Br` [Beispiel 5.197], for which the chromatographic logP in data set [3] is 4.81.
Turning to `COc1ncc(C=NOCC#Cc2cc(SC)c(F)c(SC)c2)cc1F` [Beispiel 5.198], in data set [3], the chromatographic logP was 4.65.
Take `CCOc1ncc(C=NOCC#Cc2cccc(SC)c2)cc1F` [Beispiel 5.199]: in data set [3], the chromatographic logP came out at 4.68. The chromatographic logP values of the last two compounds are within 0.2 log units of each other.
Still for that read-out and setting: under `CS(=O)(=O)c1ccc(C=NOCC#Cc2cccc(CC#N)c2)cn1` [Beispiel 5.200] stands 2.18; under `COc1ccccc1-c1ccn(CC#Cc2cccc(SC)c2)n1` [Beispiel 6.050], 3.43.
